Measurements: patent publication US20220193171A1, “PHARMACEUTICAL COMPOSITION COMPRISING MIXTURE EXTRACT OF COPTIS RHIZOME AND SCHIZONEPETA TENUIFOLIA AS ACTIVE INGREDIENT FOR PREVENTION OR TREATMENT OF INFLAMMATORY BOWEL DISEASE” (HELIXMITH CO., LTD, priority 2019, published 2022)

Legend:
[1] = test system: DSS-induced colitis mice; test: Effects of single herbal extracts with different concentration in DSS-induced colitis mice (Example 4); assay type: in vivo, mice (C57BL/6); details: 5-ASA 25 mg/kg orally; 2.5% DSS 6 days
Protocol: After 8-week-old male mice (C57BL/6) were acclimated for one week or longer, the mice were classified into: a normal group; a DSS and distilled water administration group (negative control); a DSS and 5-ASA administration group (positive control group); and groups in which DSS and extracts of four kinds of herbs (Coptis Rhizome, […] Herba, Schizonepeta tenuifolia Briquet, and […] Herba) selected in Example 1 (experimental groups). The mice were fed 100 mL of DSS diluted in drinking water to 2.5%, which was then changed every two days. To evaluate the effects of single herbal extracts with different concentrations, DSS was administered for a total of 6 days, and then drinking water was changed. 5-ASA was distilled in drinking water to 25 mg/kg and orally administered. Each single herbal extract was orally administered at doses of 10, 30, and 100 mg/kg once/day for 14 days from the start date of the experiment, and the body weight change, feces state, and the presence of bloody feces were checked every day. In addition, DAI scores were calculated based on the results of the body weight change, feces state, and the presence of bloody feces, and the results are shown in Table 9 below and FIG. 6.

[2] = test system: IL-17; test: Quantitative PCR of IL-17 expression in colon of DSS-induced colitis mice (Example 6); assay type: in vivo, mouse; details: relative value vs normal group, GAPDH standard; colon RNA; 5-ASA 25 mg/kg orally
Protocol: (§1) RNA was isolated from the colon of the mice collected in Example 5 by using TRIzol (Invitrogen, USA). Thereafter, quantitative PCR through primers specific to the inflammatory factors TNF-α, IL-1β, IL-17, IL-23, CCL2, and MIP-2, and SYBR green (Takara, Japan) was performed using cDNA obtained by performing RT-PCR. The expression levels of RNA obtained therefrom were expressed as a relative change compared with the untreated group (normal group) by using GAPDH mRNA as the standard gene. The experimental results are shown in Tables 11 to 16 below and FIGS. 8 to 13.

[3] = test system: DNBS-induced enteritis model; test: Effects of single herbal extracts on DNBS-induced enteritis model (Example 3); assay type: in vivo, mice (C57BL/6); details: 5-ASA 25 mg/kg orally once/day for 5 days; DNBS rectal
Protocol: After 8-week-old male mice (C57BL/6) were acclimated for one week or longer, the mice were classified into: a normal group; a DNBS and distilled water administration group in which dinitrobenzene sulfonic acid (DNBS; Sigma-Aldrich, USA) was administered to induce inflammatory bowel disease and then distilled water was administered (negative control); a DNBS and 5-ASA administration group (positive control group); and groups in which DNBS and extracts of 11 kinds of herbs (Terminaliae Fructus, Selaginellae Herba, Schizonepeta tenuifolia Briquet, Geranii Herba, Psoraleae Semen, Thujae Orientalis Folium, Coptis Rhizome, Galla Rhois, Ailanthi Radicis Cortex, Puerariae Radix, and Liriopis Tuber) selected in Example 2 (experimental groups).
The DNBS-induced enteritis model is known to be closely related with human Crohn's disease in that T cell-mediated immune response is induced. DNBS in 50% ethanol/distilled water at 40 mg/mL was prepared, and 0.1 mL was slowly injected into the rectum of the mouse by using a catheter. 5-ASA, used as a drug for the positive control group, was diluted in drinking water to 25 mg/kg, and administered orally once/day for 5 days from the start date of the experiment. […]
On the last day of the experiment, the mice were sacrificed with carbon dioxide gas, and the colon site was excised, and the colon length was measured.

[4] = test system: DSS-induced enteritis model; test: Effects of single herbal extracts in DSS-induced enteritis model (Example 2); assay type: in vivo, mice (C57BL/6); details: 5-ASA 25 mg/kg orally once/day for 14 days; 2.5% DSS 5 days
Protocol: After 8-week-old male mice (C57BL/6) were acclimated for one week or longer, the mice were classified into: a normal group; a DSS and distilled water administration group in which Dextran Sulfate Sodium (DSS; 36,000-50,000 MW, MP Biomedicals, USA) was administered to induce ulcerative colitis and then distilled water was administered (negative control); a DSS and 5-aminosalicylic acid (5-ASA; Tokyo Chemical Industry Co., Japan) administration group (positive control group); and groups in which DSS and respective single herbal extracts prepared in Example 1 were administered (experimental groups).
(§2) The DSS-induced enteritis model has been known to show similar morphological changes and symptoms to human ulcerative colitis. The mice were fed 100 mL of DSS diluted in drinking water to 2.5%, which was then changed every two days. After the induction by DSS for 5 days, drinking water was changed.
(§3) 5-ASA, used as a drug for the positive control group, was diluted in drinking water to 25 mg/kg, and administered orally once/day for 14 days from the start date of the experiment. Each single herbal extract was orally administered at a dose of 100 mg/kg once/day for 14 days from the start date of the experiment.
The mice of each group were weighed to calculate weight loss rates, and the feces state and the presence of bloody feces were checked, every day after the start of the experiment. Scoring was conducted for the three indicators according to the standards in Table 2 below.
Disease activity index (DAI), which is the sum calculated according to the scoring standards on Table 2 above, is shown in Table 3 below and FIG. 1.
On the last day of the experiment, the mice were sacrificed with carbon dioxide gas, and the colon site was excised. The colon length was measured from the excised colon, and then the state of the intestinal mucosa was investigated by incision in the longitudinal direction.
The histological colitis score was calculated by measuring the lengths of the mucosal ulcer site and the damaged mucosal layer in the colon tissue and averaging the values.

[5] = test system: IL-1β; test: Quantitative PCR of IL-1β expression in colon of DSS-induced colitis mice (Example 6); assay type: in vivo, mouse; details: relative value vs normal group, GAPDH standard; colon RNA; 5-ASA 25 mg/kg orally
Protocol: as §1

[6] = test system: MIP-2; test: Quantitative PCR of MIP-2 expression in colon of DSS-induced colitis mice (Example 6); assay type: in vivo, mouse; details: relative value vs normal group, GAPDH standard; colon RNA; 5-ASA 25 mg/kg orally
Protocol: as §1

[7] = test system: CCL2; test: Quantitative PCR of CCL2 expression in colon of DSS-induced colitis mice (Example 6); assay type: in vivo, mouse; details: relative value vs normal group, GAPDH standard; colon RNA; 5-ASA 25 mg/kg orally
Protocol: as §1

[8] = test system: IL-23; test: Quantitative PCR of IL-23 expression in colon of DSS-induced colitis mice (Example 6); assay type: in vivo, mouse; details: relative value vs normal group, GAPDH standard; colon RNA; 5-ASA 25 mg/kg orally
Protocol: as §1

[9] = test system: DSS-induced colitis mice; test: Comparison of single extracts and mixed extracts in DSS-induced colitis mice (Example 5); assay type: in vivo, mice (C57BL/6); details: 5-ASA 25 mg/kg orally; 2.5% DSS 5 days
Protocol: After 8-week-old male mice (C57BL/6) were acclimated for one week or longer, the mice were classified into: a normal group; a DSS administration group, a DSS and distilled water administration group (negative control); a DSS and 5-ASA administration group (positive control group); and a group administered DSS and Coptis Rhizome 100 mg/kg, a group administered DSS and Schizonepeta tenuifolia Briquet 10 mg/kg, and a group administered DSS, Coptis Rhizome 100 mg/kg, and Schizonepeta tenuifolia Briquet 10 mg/kg (mixed extract administration group). The mice were fed 100 mL of DSS diluted in drinking water to 2.5%, which was then changed every two days. After DSS administration for 5 days, drinking water was changed. 5-ASA, used as a drug for the positive control group, was diluted in drinking water to 25 mg/kg, and orally administered. Coptis Rhizome 100 mg/kg, Schizonepeta tenuifolia Briquet 10 mg/kg, and a 10:1 mixture of Coptis Rhizome and Schizonepeta tenuifolia Briquet at a dose of 110 mg/kg were orally administered once/day for 14 days, and the body weight change rate, feces state, and the presence of bloody feces were checked every day.

[10] = test system: DSS-induced enteritis model; test: Effects of single and mixed herbal extracts on DSS-induced enteritis model (Example 11); assay type: in vivo, mice (C57BL/6); details: 5-ASA 25 mg/kg orally once/day for 10 days; 2.5% DSS 5 days
Protocol: After 8-week-old male mice (C57BL/6) were acclimated for one week or longer, the mice were classified into: a normal group;
a DSS and distilled water administration group in which Dextran Sulfate Sodium (DSS; 36,000-50,000 MW, MP Biomedicals, USA) was administered to induce ulcerative colitis and then distilled water was administered (negative control); a DSS and 5-aminosalicylic acid (5-ASA; Tokyo Chemical Industry Co., Japan) administration group (positive control group); and groups in which together with DSS, Coptis Rhizome and Schizonepeta tenuifolia Briquet extracts prepared in Example 1 and mixed herbal extracts prepared in Example 7 were administered (experimental groups).
as §2
as §3, with “10” for “14”, “mixed” for “single”, “50” for “100”
The mice of each group were weighed to calculate weight loss rates every day after the start of the experiment.
In addition, DAI scores were calculated based on the results of the body weight change, feces state, and the presence of bloody feces, and the results are shown in Table 23 below and FIG. 17.
On the last day of the experiment, the mice were sacrificed with carbon dioxide gas, and the colon site was excised.

[11] = test system: TNF-α; test: Quantitative PCR of TNF-α expression in colon of DSS-induced colitis mice (Example 6); assay type: in vivo, mouse; details: relative value vs normal group, GAPDH standard; colon RNA; 5-ASA 25 mg/kg orally
Protocol: as §1

Nc1ccc(O)c(C(=O)O)c1 [Positive control, 5-aminosalicylic acid]
Body weight change rate for 14 days (%) [1]: −19.38%
DAI score of Day 10 [1]: 4.8
IL-17 expression level [2]: 1.77
Colon length (cm) [3]: 7.10 cm
Survival rate (%) [3]: 60%
Colon length (cm) [4]: 5.6 cm
DAI score of Day 10 [4]: 2.4
Histological colitis score [4]: 1.00
IL-1β expression level [5]: 2.28
MIP-2 expression level [6]: 1.86
CCL2 expression level [7]: 3.26
IL-23 expression level [8]: 1.65
DAI score of Day 10 [9]: 2.8
Body weight change rate for 10 days (%) [10]: −11.66%
Colon length (cm) [10]: 7.04 cm
DAI score of DAY 10 [10]: 4.8
TNF-α expression level [11]: 2.16
